Experimental data: patent US20110082087A1, “COMPOUNDS FOR TREATING PAIN” (Edificio ICAT, priority 2008, published 2011)

Experiments:
Plasma stability = format: in vitro ADME, human; conditions: after 1 h incubation
Text: Drugs are exposed in plasma to enzymatic processes (proteinases, esterases), they can undergo intramolecular rearrangement or bind irreversibly (covalently) to proteins. Compounds which are not stable in plasma have inherent liability as drug candidates, as they are less capable to reach a sufficient concentration at their site of pharmacological activity.

[1] = Partition into lipid bilayer vesicles (fluorescence titration); format: physicochemical; conditions: mammal-mimetic lipid bilayer vesicle; numerical treatment of fluorescence titration
Text: We performed biophysical studies using fluorescent methodologies in order to characterize the interaction of KTP-NH2 with liposomes representing human cell membranes (Santos N. C., Prieto M. and Castanho M. A. 2003. Quantifying molecular partition into model systems of biomembranes: an emphasis on optical spectroscopic methods. Biochim Biophys Acta 1612: 123-135.). A clear interaction of KTP-NH2 with the lipid bilayers was observed. […] When titrated with a mammal-mimetic lipid bilayer vesicle (circles), the fluorescence intensity of the phenolic moiety increases due to insertion in the apolar environment created by the lipids. The POPC system mimetizes the external layer of human cell membranes, whereas POPG lipidic mixture mimetizes the internal layer of human cell membranes.
In order to confirm that these plasma-stable KTP-NH2 derivatives maintained their lipophilicity, their potential interaction with human cell membranes was assessed. Again, we performed biophysical studies using fluorescent methodologies (Santos N. C., Prieto M. and Castanho M. A. 2003. Quantifying molecular partition into model systems of biomembranes: an emphasis on optical spectroscopic methods. Biochim Biophys Acta 1612: 123-135.).

rats [2] = assay: Comparison with morphine, behavioural nociception tests and behaviour observation; format: in vivo, rat; conditions: i.p.
Procedure: (§1) In vivo behavioural anti-nociception tests were carried out in rats (Wister, male). Unless otherwise stated, compounds were administered by intra-peritoneal (i.p.) injection. For most assays, the Tail Flick and the Hot Plate tests were used.
The analgesic potential of KTP-NH2 was also verified by comparison with well-known, widely-used analgesic molecules: ibuprofen and morphine.
From FIG. 12 it is possible to observe that the efficacy of 3 mg/100 g of KTP-NH2 is similar to that observed with 0.5 mg/100 g dose of morphine.

rats [3] = assay: Rota-rod test (motor ability); format: in vivo, rat; conditions: 3.23 mg/100 g of body mass
Procedure: To evaluate the motor ability of animals after being injected with the drug (3.23 mg/100 g of body mass), the Rota-rod test was used. Briefly, the animal is placed on a wheel and run in balanced position; if balance is lost, the animal falls.

rats (Wister, male) [4] = assay: Histological alterations in liver, kidney and spleen; format: in vivo, rat; conditions: hematoxylin/eosin; 3.23 mg/100 g i.p. seven days
Procedure: The toxicological studies were carried out with rats (Wister, male) injected i.p. once a day with 3.23 mg/100 g body mass during seven days.
For investigation of histological alterations in liver, kidney and spleen hematoxylin/eosin-stained sections of fixed tissue were used.

[5] = Differential quenching, depth of location in the membrane; format: physicochemical; conditions: phenolic ring; differential quenching with 5-NS and 16-NS
Text: Differential quenching experiments were used to estimate the depth of location of the phenolic ring of the peptides, based on a Brownian dynamics simulation (Fernandes M. X., Garcia de la Torre J., Castanho M. A. 2002. Joint determination by Brownian dynamics and fluorescence quenching of the in-depth location profile of biomolecules in membranes. Anal. Biochem. 307: 1-12.) This methodology allows to determine where the molecules are preferably inserted along the lipid bilayer. The peptides with the amide group show a greater depth of insertion, 4 Å—KTP-NH2 and 3 Å—Ibu-KTP-NH2, from the lipid/water interface. This is in agreement with KTP-NH2 having a higher affinity for lipids, as desired.

CYP3A4 = CYP3A4 (Homo sapiens, UniProt P08684); assay: CYP inhibition; format: in vitro ADME; conditions: probe substrates midazolan and testosterone
Text: CYP3A4 is one of the most important enzymes involved in the metabolism of xenobiotics in the body, promoting the oxidation of the largest range of substrates of all the CYPs and is present in the largest quantity of all the CYPs in the liver.

[6] = Acrylamide quenching studies (aggregation in aqueous medium); format: physicochemical; conditions: acrylamide quenching of tyrosine fluorescence
Procedure: The aggregation of molecules in aqueous medium, as a result of poor solubility, for example, is a critical parameter in pharmacology. […] For this purpose, acrylamide quenching studies were performed (Lakowicz J. R 1999. Principles of Fluorescence spectroscopy, Second Edition ed., Kluwer Academic/Plenum Publishers, New York; Coutinho A and Prieto M. 1993. Ribonuclease T1 and alcohol dehydrogenase fluorescence quenching by acrylamide: A laboratory experiment for undergraduate students J. Chem. Education, 70: 425-428). Acrylamide is an aqueous quencher of tyrosine fluorescence. When fluorescent peptides aggregate, the phenolic groups tend to cluster and remain inaccessible to hydrophilic molecules. Conversely, when no aggregation occurs, all tyrosine residues are exposed to the solvent and, therefore, accessible to the contact and quenching by acrilamide. […] The fluorescence spectra were not concentration-dependent (not shown) and there was a linear dependence of fluorescence intensity on concentration (not shown).

rats (Wister, male) [7] = assay: Increasing-temperature Hot Plate test; format: in vivo, rat
Procedure: as §1
The hot-plate test (Eddy N. B and Leimbach D. 1953. Synthetic analgesics II. Dithienylbutenyl and dithienylbutylamines J. Pharmacol. Exp. Ther. 45: 339) evaluates a supraspinally integrated response in the form of thermal pain reflexes due to footpad contact with a heated surface. During the experiments, the animal is confined in a removable clear acrylic compartment where the latency time to the first hind paw or/and jumping responses are measured. […] The response is the licking of the hindpaw, and the corresponding plate temperature represents the recorded nociceptive end-point. The advantage of Increasing-Temperature Hot-Plate test over the standard constant-temperature hot-plate test is the higher sensitivity and the lack of influences of pre-exposure to the hot-plate before testing. Animal reaction temperature is a measurement of animal resistance to pain and is used to measure efficacy of analgesics.

Chain of CYP3A4 (P08684 whole entry): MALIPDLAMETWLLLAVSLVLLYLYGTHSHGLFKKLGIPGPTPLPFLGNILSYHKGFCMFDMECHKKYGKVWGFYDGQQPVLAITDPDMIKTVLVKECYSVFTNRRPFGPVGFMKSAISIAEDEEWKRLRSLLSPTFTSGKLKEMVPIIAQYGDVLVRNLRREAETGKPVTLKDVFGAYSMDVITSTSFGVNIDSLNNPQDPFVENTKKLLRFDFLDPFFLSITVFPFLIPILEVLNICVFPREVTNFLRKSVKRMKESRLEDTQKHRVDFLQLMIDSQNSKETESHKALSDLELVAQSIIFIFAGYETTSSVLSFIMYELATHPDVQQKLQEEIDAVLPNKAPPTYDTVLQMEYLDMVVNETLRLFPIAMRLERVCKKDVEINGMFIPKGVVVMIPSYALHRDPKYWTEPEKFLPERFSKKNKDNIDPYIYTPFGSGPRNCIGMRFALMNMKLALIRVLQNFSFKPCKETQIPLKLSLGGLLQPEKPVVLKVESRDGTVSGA

Compound: N=C(N)NCCC[C@H](NC(=O)[C@@H](N)Cc1ccc(O)cc1)C(N)=O [KTP-NH2, L-Tyr-L-Arg-NH2]
- stability in human plasma (Plasma stability): 14-21%
- local concentration in the model membrane of mammals relative to surrounding bulk aqueous phase [1]: approx. 2500 fold
- analgesic efficacy compared with morphine (rats [2]; 3 mg/100 g KTP-NH2 vs 0.5 mg/100 g morphine): similar
- alterations in behavior (secondary effects) (rats [2]; rats): no such secondary effects were observed
- motor ability, loss of balance (rats [3]): No loss of balance/equilibrium
- histological alterations in kidney and spleen (rats (Wister, male) [4]): no histological modifications
- histological alterations in liver (rats (Wister, male) [4]): no sign of hepatic necrosis
- depth of insertion from the lipid/water interface [5]: 4 Å
- CYP3A4 inhibition (CYP3A4): not to inhibit
- aggregation / solubility in aqueous medium [6]: favourable solubility properties
- analgesic effect compared with ibuprofen (rats (Wister, male) [7]; Hot Plate, i.p.): more pronounced effect
- duration of anti-nociceptive response (rats (Wister, male) [7]; Hot Plate, i.p., rat): 30 min
- smallest dose tested with statistical significance (rats (Wister, male) [7]; Hot Plate, i.p., rat): 1.67 mg for 100 g of body mass
- analgesic efficacy after oral administration (rats (Wister, male) [7]; Hot Plate, oral, rat): slight delay of the onset of effect
- effect in hot plate test (rats (Wister, male) [7]; i.p., rat): clear anti-nociceptive response
